Results as given in publication PMC5796995 (Oncotarget, 2017).

How the values were obtained:
[1] = system: hepatic microsomal enzymes; assay type: in vitro ADME, rat
plasma proteins = assay type: in vitro ADME; conditions: human
[2] = system: Salmonella typhimurium (TA100); assay type: cell-based
calf thymus DNA = assay type: biochemical
HepG2 cells [3] = assay type: cell-based, human
HepaRG cells [4] = assay type: cell-based, human
HepG2 cells [5] = assay type: cell-based, human; remark: listed apart in the source
HepaRG cells [6] = assay type: cell-based, human; remark: listed apart in the source
[7] = assay type: physicochemical; conditions: pH 7
Description: Individual standards of AFB1, AFB2a, and AFB2a-Arg were prepared in deionized water (pH 7) at a concentration of 300 ng/mL each. Aliquots of 300 μL of each aqueous standard were added to 300 μL of 1-octanol. Solutions were shaken at 1800 rpm for 5 min and then allowed to equilibrate for an additional 30 minutes. Aqueous and organic layers for each sample were separated and analyzed by HPLC-MS. Octanol-water partition coefficients (P) were calculated as follows: P=[Peak area in octanol fraction]/[Peak area in aqueous fraction]

Caco-2 monolayers = assay type: in vitro ADME
Description: Assay plates containing 12 wells of 21-day Caco-2 monolayers were provided by MB Biosciences. Monolayer integrity was verified using transepithelial electrical resistance measurements (TEER) prior to assay. Treatment solutions of AFB1, AFB2a, and AFB2a-Arg were prepared in the provided Hank's buffered salt solution (HBSS) with a pH of 7.4 and a final DMSO concentration of 0.2%. Caco-2 monolayers were first rinsed with HBSS and then the apical chamber was filled with 500 μL of test compound solution while the basal chamber was filled with 1500 μL of blank HBSS (both chambers were kept at pH 7.4). Plates were incubated at 37°C for 2 hours to allow compound equilibration. Compound concentration was measured at t = 0 hrs and t = 2 hours by HPLC-MS. Permeability (Papp) was calculated as follows: Papp=dQ/dt×1/A×C0
Where dQ/dt is the amount of translocated material over incubation time (nmol/s), A is the area of the insert (cm^2), and C0 is the initial concentration of the test compound applied. […] ER was calculated as follows: ER=Papp(Basal→Apical)/Papp(Apical→Basal)

Which “degraded by hepatic microsomal enzymes” value [1] does the source give for `COc1cc2c(c3oc(=O)c4c(c13)CCC4=O)C1C=COC1O2` (stereo not drawn) [AFB1, aflatoxin B1, reference compound] here?
Its value is “approximately 75%”.

And the plasma protein bound (plasma proteins)?
The plasma protein bound was 82%.

And the “number of revertant wells (mutagenic response)” value [2]?
Its value is “significant increase in the number of revertant wells”.

What about the DNA adduct formation (calf thymus DNA) of the same compound?
The DNA adduct formation was “presence of DNA adduction”.

What about the “concentrations that significantly reduced the percentage of viable cells” value (HepG2 cells [3]) of the same compound?
The value was over 7.5 µM.

What about the “concentrations that significantly reduced the percentage of viable cells” value (HepaRG cells [4]) of the same compound?
The value was over 3.75 µM.

And the number of micronuclei (HepG2 cells [5])?
The number of micronuclei was “significant increase in the number of micronuclei”.

What about the number of micronuclei (HepaRG cells [6]) of the same compound?
Its number of micronuclei is “significant increase in the number of micronuclei”.

With `COc1cc(O)c(-c2ccn(C(CCCNC(=N)N)C(=O)O)c2)c2oc(=O)c3c(c12)CCC3=O` (stereo not drawn) [AFB2a-Arg, aflatoxin B2a-arginine] as the compound, how does the “degraded by hepatic microsomal enzymes” value [1] read?
Its value is “not significantly degraded”.

And the plasma protein bound (plasma proteins)?
The plasma protein bound was 99%.

And the octanol-water partition coefficient [7]?
Its octanol-water partition coefficient is “lower partition coefficient than AFB1 or AFB2a”.

And the “efflux ratio, comparison” value (Caco-2 monolayers)?
Its value is “significantly higher efflux ratio than AFB1”.

What about the “intestinal permeability (Papp), comparison” value (Caco-2 monolayers; pH 7.4) of the same compound?
Its value is “significantly lower than AFB1”.

What about the “number of revertant wells (mutagenic response)” value [2] of the same compound?
The value was “did not show any significant differences from the vehicle”.

What about the DNA adduct formation (calf thymus DNA) of the same compound?
Its DNA adduct formation is “no additional peaks were discovered”.

And the “concentrations that significantly reduced the percentage of viable cells” value (HepG2 cells [3])?
Its value is “no significant decreases in cell viability”.

And the “concentrations that significantly reduced the percentage of viable cells” value (HepaRG cells [4])?
The value was “no significant decreases in cell viability”.

What about the “concentrations without increase in micronuclei formation” value (HepG2 cells [5]) of the same compound?
Its value is at most 60 µM.

And the number of micronuclei (HepG2 cells [5])?
The number of micronuclei was “did not show this genotoxic marker”.

And the “concentrations without increase in micronuclei formation” value (HepaRG cells [6])?
Its value is at most 60 µM.

What about the number of micronuclei (HepaRG cells [6]) of the same compound?
Its number of micronuclei is “did not show this genotoxic marker”.
